Assay results published in BindingDB's records for doi:10.1021/jm00008a012 (University of Minnesota, 1995).

Tests used:
[1] = Tested for binding affinity against delta1 opioid receptor using [3H]-DPDPE as a radioligand in the guinea pig brain membranes.
[2] = Tested for binding affinity against delta2 opioid receptor using [3H]DSLET as a radioligand in the guinea pig brain membranes.

Row | SMILES | Ki [1] | Ki [2]
1 | O=C(CBr)Nc1cccc(Cn2c3c(c4ccccc42)C[C@@]2(O)C4Cc5ccc(O)c6c5C2(CCN4CC2CC2)[C@H]3O6)c1 (stereo partly drawn) [1N-{3-[22-cyclopropylmethyl-2,16-dihydroxy-14-oxa-11,22-diazaheptacyclo[13.9.1.01,13.02,21.04,12.05,10.019,25]pentacosa-4(12),5(10),6,8,15,17,19(25)-heptaen-11-ylmethyl]phenyl}-2-bromoacetamide] | 0.019 nM | 0.038 nM
2 | Oc1ccc2c3c1O[C@H]1c4c(c5ccccc5n4Cc4ccccc4N=C=S)C[C@@]4(O)C(C2)N(CC2CC2)CCC314 (stereo partly drawn) [22-cyclopropylmethyl-11-(2-isothiocyanatobenzyl)-14-oxa-11,22-diazaheptacyclo[13.9.1.01,13.02,21.04,12.05,10.019,25]pentacosa-4(12),5(10),6,8,15,17,19(25)-heptaene-2,16-diol] | 2 nM | 3.6 nM
3 | Oc1ccc2c3c1O[C@H]1c4c(c5ccccc5n4Cc4cccc(N=C=S)c4)C[C@@]4(O)C(C2)N(CC2CC2)CCC314 (stereo partly drawn) [22-cyclopropylmethyl-11-(3-isothiocyanatobenzyl)-14-oxa-11,22-diazaheptacyclo[13.9.1.01,13.02,21.04,12.05,10.019,25]pentacosa-4(12),5(10),6,8,15,17,19(25)-heptaene-2,16-diol] | 4.2 nM | 7 nM
4 | Oc1ccc2c3c1O[C@H]1c4c(c5ccccc5n4Cc4ccc(N=C=S)cc4)C[C@@]4(O)C(C2)N(CC2CC2)CCC314 (stereo partly drawn) [22-cyclopropylmethyl-11-(4-isothiocyanatobenzyl)-14-oxa-11,22-diazaheptacyclo[13.9.1.01,13.02,21.04,12.05,10.019,25]pentacosa-4(12),5(10),6,8,15,17,19(25)-heptaene-2,16-diol] | 5.3 nM | 5 nM
